Data: US20250075337A1, “SATURATED QUATERNARY AMMONIUM COMPOUNDS, GLUTARALDEHYDE, AND TETRAKIS(HYDROXYMETHYL)PHOSPHONIUM SULFATE FOR CORROSION INHIBITION, CLEANING, AND BIOCIDAL EFFICACY IN HYDROGEN SYSTEMS” (ChampionX LLC, priority 2023, published 2025)

Assay: Bubble cell test, corrosion rate by linear polarization resistance (LPR)
Conditions: 80° C., CO2 saturated 3% NaCl brine; 100 ppm active; about 15 hours after CI injection; versus uninhibited carbon steel electrode
Method: Examples were conducted to assess the corrosion inhibition of a saturated alkyl diquaternary compounds of structure (IIIa) as described above using a bubble cell test to assess corrosion performance using linear polarization resistance testing. The corrosion inhibitor (CI) was evaluated without combination of any other chemistries or formulation components.
The corrosion rate was measured by Linear Polarization Resistance (LPR) techniques. The working electrode used was carbon steel (C1018 grade). The counter and reference electrodes were both 1018 carbon steel. The electrodes were all cleaned and polished prior to testing.
The test conditions included: 80° C., CO2 saturated fluids with 3% NaCl brine (100% brine) with continuous CO2 sparge, atmospheric pressure. A pre-corrosion time (i.e. with no corrosion inhibitor) was carried out for about 3 hours before 500 ppm of a 20% active chemistry in solvent blend was added. This is equivalent to 100 ppm of the active chemistry being introduced into the test cell. The inhibited corrosion rate at about 15 hours after CI chemical injection was noted and a percentage inhibition determined by comparing with the corrosion rate of a carbon steel electrode under otherwise the same conditions in the absence of chemical corrosion inhibitor after the same time of exposure to the corrosive environment.

With `CCCCCCCCCCCCCCCCCC[N+](C)(C)CC(O)C[N+](CCO)(CCO)CCO` (stereo not shown) [CI Structure IIIa] the “% Protection” value was over 99%.
